# Patent publication US9211313B2, “Methods and compound to inhibit Ca2+ permeable cation conductance” (priority 2011, dated 2015)
# Entries after “also recorded” stand apart in the source; their conditions may differ.
# Experiments:
# Assay type in all cases: cell-based
# [1] = tested on: deoxygenation-activated cation conductance in human SS red cells; assay: On-cell patch clamp of deoxygenation-activated cation conductance, symmetric Na methanesulfonate
# Procedure: (§1) Blood cell preparation: Human SS and AA blood was obtained under IRB-approved protocols of Children's Hospital and Beth Israel Deaconess Medical Center. After buffy coat removal and 5 washes in standard human red cell wash solution containing (in mM) 150 choline Cl, 1 MgCl, and 10 Tris-MOPS, pH 7.4, red cells were resuspended in storage solution containing (in mM) 145 KCl, 15 NaCl, and 10 HEPES, pH 7.4, then kept at 4° C. until used. Human red cells allowed to settle on coverslips were mounted on an inverted microscope in a 200 μl open chamber (WPI, Sarasota, Fla.) and superfused 15 min at room temperature by bath solution containing (in mM) 150 Na methanesulfonate, 10 Na EDTA, and 10 Na HEPES, pH 7.4.
# Mouse red cells allowed to settle on coverslips were superfused 15 min with bath solution containing (in mM) either 150 mM Na methanesulfonate, 10 Na EDTA, and 10 Na HEPES, pH 7.4; or 140 NaCl, 4 KCl, 1CaCl2, 1 MgCl2, 10 Na HEPES, pH 7.4. Deoxygenation was achieved by switching superfusate to the same solution gassed ≧30 min prior to the experiment with 100% N2, and by flushing of the perfusion chamber with N2 during the deoxygenation period. The resulting bath pO2 was 18 mm Hg as measured by oxygen electrode (WPI). In the experiments of FIG. 1, deoxygenated cells were subsequently re-oxygenated by exposure to the same superfusate equilibrated with room air.
# (§2) Washed human or mouse red cells in solution containing (in mM) 140 NaCl, 5 KCl, 1 CaCl2, 1 MgCl2, 10 Na HEPES, pH 7.4 were exposed for 1 hr on a rotary platform in a 37° C. incubator to 25 ppm carbon monoxide (CO) in 5% CO2. CO-exposed cells were then subjected to patch clamp or to calcium imaging experiments within 60 min after return to room air, using the solutions indicated.
# (§3) On-cell patch clamp: Borosilicate pipettes (Corning 7052) pulled with a Narishige two stage puller or a Sutter P97 puller and fire-polished to resistances of 10-20 MΩ were front-filled and then backfilled. Symmetric bath and pipette solutions for studies of seal resistance stability during reversibility tests of the deoxygenation-activated conductance in SAD mouse red cells were (in mM) 140 NaCl, 4 KCl, 1 CaCl2, 1 MgCl2, 10 Na HEPES, pH 7.4. These conditions yielded tight seals in 13% of patch attempts on SAD cells. For study of deoxygenation-induced monovalent cation permeation in the absence of bath Ca^2+ and Mg^2+ recorded in SAD and Berkeley mouse cells and in human cells, symmetric bath and pipette solutions contained (in mM) 150 Na methanesulfonate, 10 Na EDTA, and 10 Na HEPES, pH 7.4. These conditions yielded tight seals in 16% of patch attempts on SAD mouse red cells, 26% of attempts on Berkeley mouse cells, and 30% of attempts on human SS cells. For study of Ca^2+ permeation in human SS cells, bath and pipette solutions contained (in mM) 100 CaCl2, 10 Na HEPES, pH 7.4. These conditions yielded tights seals on 44% of attempts. For all conditions tested in human red cells, 70% of tight seals were sustained through the solution change accompanying deoxygenation to allow recording of current activity.
# (§4) On-cell patch currents were recorded with the Axopatch 1-D amplifier (Axon Instruments/Molecular Devices, Sunnyvale, Calif.). Holding potential was −Vp=−50 mV (expressed as the negative of the pipette potential (e.g., equivalent to the intracellular potential with respect to the pipette). To determine current-voltage relationships (I-V curves) in Fetchex or Clampex (PCLAMP, Axon Instruments), the realtime control window in gap-free mode was used to record current traces of 10-30 sec duration at holding potentials ranging from −100 to +100 mV, in 25 mV increments. The bath reference electrode was a silver chloride wire with a 3 M KCl agar bridge. Data was filtered at 500 Hz, digitized at 2 kHz by Clampex, and analyzed offline by Fetchan and Pstat or by Clampfit subroutines of PCLAMP. Holding potentials in on-cell patch experiments were expressed as −Vp, the negative of the pipette potential.
# human SS red cells = assay: Fluo-3 fluorescence measurement of [Ca2+]i during deoxygenation, human SS cells; conditions: CO preincubation, no continued CO exposure
# Procedure: as §1, §2
# (§5) Fluorescence measurements of cytosolic [Ca^2+] ([Ca^2+]i): After removal of plasma and buffy coat by aspiration, human or mouse red cells were washed three times at room temperature and suspended in modified Hank's solution containing (in mM), 137 NaCl, 5.4 KCl, 1 CaCl2, 1 MgCl2, 0.8 NaK phosphate, 5.6 glucose, and 10 Na HEPES, pH 7.4. Dilute cell suspensions were settled on polylysine-coated coverslips forming the bottom of an open perfusion chamber (2.5 cm diameter, 1 cm depth) and washed again 3 times.
# Measurement of relative changes in [Ca^2+]i by Fluo-3 fluorescence emission was previously validated in intact human (Yang et al. 2000, Blood, 95(7):2421-2425; Andrews et al. 2002, Blood, 199(9):3392-3399) and mouse red cells (Akel et al. 2007, Amer. J. Physiol., 292(5):C1759-1767). […] Fluorescence emission (proportional to [Ca^2+]i) from a 535ds20 bandpass filter was collected from all attached single cells within the arbitrarily selected visual field. […]
# (§6) Fluo-3 fluorescence from attached cells on each coverslip was recorded 60 sec in room air and then for 10 min after onset of perfusion chamber flushing with humidified 100% N2. The normalized increase in Fluo-3 fluorescence in SS cells subjected to this deoxygenation procedure was indistinguishable from that observed during superfusion of cells in a closed perfusion chamber via syringe pump with bath previously bubbled for 60 min with 100% N2 (n=62 cells from 2 SS patients, not shown). The y-axis value of 0% change in Fluo-3 fluorescence intensity represented mean intensity recorded from all cells within the coverslip visual field during the 60 sec prior to deoxygenation.
# KCa3.1 = target: T1, KCa3.1 (Homo sapiens, UniProt O15554)
# T1 construct: KCa3.1 activity stimulated in intact human AA cells by 1 μM A23187; endogenous in cells; host or cells: intact human AA red blood cells
# [2] = tested on: LPA-induced cation conductance in human SS red cells; assay: On-cell patch clamp of LPA-induced cation conductance
# Description: as §3, §4
# Deoxygenation-activated flickering cation conductance observed in human SS cells contrasted with the prolonged channel openings produced by 5 μM LPA (FIG. 10A). In SS cells, LPA increased NPo […], from 0.04±0.03 to 0.82±0.18 (n=8, p<0.001; Na methanesulfonate in bath and pipette, −Vp=−50 mV; FIG. 10B). LPA-induced cation conductance was 96% inhibited by 100 uM dipyridamole in the pipette, and 97% inhibited by 1 μM GsMTx-4 in the pipette (both n=4).
# [3] = tested on: SAD sickle mouse red cells; assay: Fluo-3 fluorescence measurement of [Ca2+]i during deoxygenation, SAD cells
# Procedure: Blood was withdrawn by cardiac puncture or from the tail vein of C57B16/J wildtype mice, SAD sickle mice, or Berkeley sickle mice into heparinized syringes by IACUC-approved protocols of Beth Israel Deaconess Medical Center. Buffy coat-depleted cells were washed 5 times in standard mouse red cell wash solution containing (in mM) 172 choline Cl, 10 sucrose, 10 Na Tris-MOPS, pH 7.4, resuspended in storage solution, and kept at 4° C. until use.
# as §5
# Measurement of relative changes in [Ca^2+]i by Fluo-3 fluorescence emission was previously validated in intact human (Yang et al. 2000, Blood, 95(7):2421-2425; Andrews et al. 2002, Blood, 199(9):3392-3399) and mouse red cells (Akel et al. 2007, Amer. J. Physiol., 292(5):C1759-1767). Attached red cells were loaded in the dark with the fluorescent non-ratiometric Ca^2+ indicator Fluo-3-AM (10 μM, Molecular Probes, Eugene, Oreg.) at 37° C. for 1 hr, then washed and incubated 15 min further to allow de-esterification of intracellular dye. The open perfusion chamber containing dye-loaded cells was mounted on an Olympus IMT-2 inverted epifluorescence microscope equipped with CoolSNAP CCD camera (Photometrics, Tucson, Ariz.). Fluo-3 in cells imaged through a 60× objective was excited by mercury-xenon illumination passed through a 495ds20 filter. Fluorescence emission (proportional to [Ca^2+]i) from a 535ds20 bandpass filter was collected from all attached single cells within the arbitrarily selected visual field. Emission image acquisition was controlled by a Metafluor digital imaging system (Universal Imaging, West Chester, Pa.).
# as §6
# T1 sequence (O15554 whole entry): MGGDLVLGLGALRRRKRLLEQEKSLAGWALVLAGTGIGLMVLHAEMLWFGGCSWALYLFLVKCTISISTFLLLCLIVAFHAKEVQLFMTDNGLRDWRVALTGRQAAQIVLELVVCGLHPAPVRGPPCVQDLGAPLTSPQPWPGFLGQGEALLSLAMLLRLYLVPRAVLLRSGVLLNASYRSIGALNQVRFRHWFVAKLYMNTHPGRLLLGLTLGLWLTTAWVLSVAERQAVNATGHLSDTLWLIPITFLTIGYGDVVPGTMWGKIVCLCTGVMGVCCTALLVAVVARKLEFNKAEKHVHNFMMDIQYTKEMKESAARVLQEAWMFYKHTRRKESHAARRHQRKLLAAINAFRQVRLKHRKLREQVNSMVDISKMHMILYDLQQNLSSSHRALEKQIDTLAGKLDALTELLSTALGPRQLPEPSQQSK
structure (smiles),measurement,setting,value
"[C-]#[O+] [CO, carbon monoxide]",NPo upon deoxygenation,"[1]; CO-pretreated cells, n=4",0.0625±0.0375
same,Normoxic NPo,"[1]; CO-pretreated cells, n=4",0.0377±0.0375
same,effect on activation of conductance upon deoxygenation,[1]; prior CO exposure of SS cells,prevented
same,effect on [Ca2+]i elevation by deoxygenation,human SS red cells,blocked; also recorded: inhibited
"O=S(=O)(O)c1cc(N=C=S)ccc1C=Cc1ccc(N=C=S)cc1S(=O)(=O)O [DIDS, 4,4′-diisothiocyanatostilbene-2,2′-disulfonic acid]",effect on deoxygenation-induced activation of cation conductance,[1]; 100 μM in the pipette,prevented; also recorded: blocked
same,NPo after deoxygenation (hypoxic),"[1]; 100 μM in the pipette, n=4",0.001±0.001
same,Normoxic NPo,"[1]; 100 μM in the pipette, n=4",0.002±0.002
"Clc1ccccc1C(c1ccccc1)(c1ccccc1)n1ccnc1 [clotrimazole, reference compound]",effect on A23187-stimulated cell shrinkage,KCa3.1,completely inhibited
OCCN(CCO)c1nc(N2CCCCC2)c2nc(N(CCO)CCO)nc(N3CCCCC3)c2n1 [dipyridamole],effect on deoxygenation-induced activation of cation conductance,[1]; 100 μM in the pipette,prevented
same,NPo after deoxygenation (hypoxic),"[1]; 100 μM in the pipette, n=4",0.004±0.002
same,Normoxic NPo,"[1]; 100 μM in the pipette, n=4",0.00
same,effect on LPA-induced increase in NPo,[2]; 100 μM in the pipette,prevented
same,inhibition at 100 µM,"[2]; Homo sapiens, 100 uM in the pipette, 5 μM LPA, n=4",96%
"[Na+].[Na+].[Na+].[O]=[V]([O-])([O-])[O-] [vanadate, Na vanadate]",effect on deoxygenation-induced [Ca2+]i elevation,"[3]; 50 μM in bath, acute deoxygenation",enhanced; also recorded: further elevated
same,time to plateau [Ca2+]i after deoxygenation,"[3]; 50 μM, continued presence",< 2 min
same,[Ca2+]i-dependent Fluo-3 emission increase,"[3]; 50 μM, 5 min normoxic preincubation of SAD cells",12.8±1.8%
same,late [Ca2+]i relative to plateau,"[3]; 50 μM, after ~4 min longer at plateau",twice the previous plateau value
